Experimental data taken from patent publication US12320799B2, “Methods of measuring signaling pathway activity for selection of therapeutic agents” (Celcuity Inc., priority 2017, dated 2025).
Where two headings read alike, the source gives them in different places. One block for each substance: values may come before it.

What was measured:
HER3 pathway = assay: Pathway ultrasensitivity test (EC90/EC10 of activator agent), impedance biosensor; format: cell-based, human; conditions: for EC90: read-out: EC90 Concentration
Text: (§1) Biosensor and transducer: A 96-well impendence E-Plate (ACEA, San Diego, CA) was placed onto an xCELLigence RTCA MP Station impendence biosensor (ACEA, San Diego, CA). The biosensor measured simultaneously the impedance of every well. The change in impedance for a particular well is proportional to the number of cells and type of attachment the cells have with the impedance microplate. Changes in impedance indicate a response to activation of these small cell populations. Coatings: The 96-E-Plate were wells were coated with fibronectin and or collagen. Collagen is purchased from Advanced BioMatrix (Carlsbad, CA) and fibronectin from Sigma-Aldrich (St. Louis, MO). Tissue and cell samples: Five different samples of human cells from breast tumors (R131, R39, R36, R20, R82) and two different samples of human cells from non-small cell lung cancer (NSCLC) tumors were studied (C15 and C23). Any biomarkers that are used to guide selection of targeted therapy are listed in Table 20 for each patient if they were present. Signaling Pathways activator: NRG1, a HER3 agonist, was used to stimulate the HER3 pathway in each of the five breast cancer cell samples. The EC90 and EC10 concentrations of the signaling pathway activator agent were also derived for each breast cancer sample.
(§2) In each of the two NSCLC cell samples, four different activating agents were used to stimulate either the EGF or HER3 pathways. The EC90 and EC10 concentrations of the signaling pathway activator agent were also derived for each NSCLC cell sample.
(§3) Other Reagents: Standard media antibiotics (e.g. penicillin, streptomycin) and other buffers were purchased and used as delivered from ATCC (Manassas, VA, USA) or Life Technologies (Grand Island, NY). Procedure: For each test of a patient cell sample with two different concentrations of signaling pathway activator, six wells were seeded with approximately 15,000 cells in 120 uL culture media. […] The impedance recording of attachment and adhesion change was performed at 37° C., 5% CO2. Data was recorded on a continuous basis throughout the test, where the data presented is from the initial baseline level of cell attachment compared to the subsequent effects following the additions of two concentrations of the signaling pathway activator agent on the 12 different patient samples. Results:
(§4) For each patient cell sample tested, output values were calculated for the signaling pathway activity measured after addition of the two different concentrations of the signaling pathway activator agent. To determine the sensitivity of the signaling pathway to the signaling pathway activator agent, the sensitivity was calculated using the two output values. When the ratio of the EC90 to EC10 is less than 81, the pathway is considered to be ultra-sensitive; otherwise the pathway is considered to be normally sensitive.

EGF pathway = assay: as above; format: cell-based, human; conditions: for EC90: read-out: EC90 Concentration
Text: as §1, §2, §3, §4

[1] = NSCLC cell sample C23, HER3 pathway
[2] = NSCLC cell sample C15, EGF pathway
[3] = NSCLC cell sample C23, EGF pathway

Sensitivity Calculation Result (ratio of the EC90 to EC10 of activating agent) (EGF pathway; [2]): 65.65
EC90 (EGF pathway; NSCLC tumor cell sample C15): 3 nM
Substance: Amphiregulin
Pathway Sensitivity Status (normal or ultra) (EGF pathway; [2]): Ultra (When the ratio of the EC90 to EC10 is less than 81, the pathway is considered to be ultra-sensitive)
EC10 Concentration (EGF pathway; NSCLC tumor cell sample C15): 0.0457 nM

Sensitivity Calculation Result (ratio of the EC90 to EC10 of activating agent) (EGF pathway; [2]): 44.15
Sensitivity Calculation Result (ratio of the EC90 to EC10 of activating agent) (EGF pathway; [3]): 21.25
EC90 (EGF pathway; NSCLC tumor cell sample C15): 0.362 nM
EC90 (EGF pathway; NSCLC tumor cell sample C23): 0.187 nM
Substance: TGF alpha
Pathway Sensitivity Status (normal or ultra) (EGF pathway; [2]): Ultra (When the ratio of the EC90 to EC10 is less than 81, the pathway is considered to be ultra-sensitive)
Pathway Sensitivity Status (normal or ultra) (EGF pathway; [3]): Ultra (When the ratio of the EC90 to EC10 is less than 81, the pathway is considered to be ultra-sensitive)
EC10 Concentration (EGF pathway; NSCLC tumor cell sample C15): 0.0082 nM
EC10 Concentration (EGF pathway; NSCLC tumor cell sample C23): 0.0088 nM

Continued, substance first:

Substance: NRG1
Pathway Sensitivity Status (normal or ultra) (HER3 pathway; [1]): Ultra (When the ratio of the EC90 to EC10 is less than 81, the pathway is considered to be ultra-sensitive)
Sensitivity Calculation Result (ratio of the EC90 to EC10 of activating agent) (HER3 pathway; [1]): 11.19
EC10 Concentration (HER3 pathway; NSCLC tumor cell sample C23): 0.399 nM
EC90 (HER3 pathway; NSCLC tumor cell sample C23): 4.46 nM
EC10 Concentration (HER3 pathway; breast tumor cell sample R20): 0.236 nM
Pathway Sensitivity Status (normal or ultra) (HER3 pathway; breast tumor cell sample R20): Ultra (When the ratio of the EC90 to EC10 is less than 81, the pathway is considered to be ultra-sensitive)
Sensitivity Calculation Result (EC90/EC10 ratio) (HER3 pathway; breast tumor cell sample R20): 18.44
EC90 (HER3 pathway; breast tumor cell sample R20): 2.14 nM
EC10 Concentration (HER3 pathway; breast tumor cell sample R36): 0.215 nM
Pathway Sensitivity Status (normal or ultra) (HER3 pathway; breast tumor cell sample R36): Ultra (When the ratio of the EC90 to EC10 is less than 81, the pathway is considered to be ultra-sensitive)
Sensitivity Calculation Result (EC90/EC10 ratio) (HER3 pathway; breast tumor cell sample R36): 27.61
EC90 (HER3 pathway; breast tumor cell sample R36): 1.96 nM
EC10 Concentration (HER3 pathway; breast tumor cell sample R39): 0.173 nM
Pathway Sensitivity Status (normal or ultra) (HER3 pathway; breast tumor cell sample R39): Ultra (When the ratio of the EC90 to EC10 is less than 81, the pathway is considered to be ultra-sensitive)
Sensitivity Calculation Result (EC90/EC10 ratio) (HER3 pathway; breast tumor cell sample R39): 45.96
EC90 (HER3 pathway; breast tumor cell sample R39): 1.6 nM
EC10 Concentration (HER3 pathway; breast tumor cell sample R82): 0.193 nM
Pathway Sensitivity Status (normal or ultra) (HER3 pathway; breast tumor cell sample R82): Normal (otherwise the pathway is considered to be normally sensitive)
Sensitivity Calculation Result (EC90/EC10 ratio) (HER3 pathway; breast tumor cell sample R82): 95.1
EC90 (HER3 pathway; breast tumor cell sample R82): 1.79 nM
EC10 Concentration (HER3 pathway; breast tumor cell sample R131): 0.133 nM
Pathway Sensitivity Status (normal or ultra) (HER3 pathway; breast tumor cell sample R131): Ultra (When the ratio of the EC90 to EC10 is less than 81, the pathway is considered to be ultra-sensitive)
Sensitivity Calculation Result (EC90/EC10 ratio) (HER3 pathway; breast tumor cell sample R131): 38.32
EC90 (HER3 pathway; breast tumor cell sample R131): 1.23 nM

Substance: Betacellulin
Pathway Sensitivity Status (normal or ultra) (EGF pathway; [2]): Ultra (When the ratio of the EC90 to EC10 is less than 81, the pathway is considered to be ultra-sensitive)
Sensitivity Calculation Result (ratio of the EC90 to EC10 of activating agent) (EGF pathway; [2]): 41.67
Pathway Sensitivity Status (normal or ultra) (EGF pathway; [3]): Ultra (When the ratio of the EC90 to EC10 is less than 81, the pathway is considered to be ultra-sensitive)
Sensitivity Calculation Result (ratio of the EC90 to EC10 of activating agent) (EGF pathway; [3]): 29.39
EC10 Concentration (EGF pathway; NSCLC tumor cell sample C15): 0.0024 nM
EC90 (EGF pathway; NSCLC tumor cell sample C15): 0.1 nM
EC10 Concentration (EGF pathway; NSCLC tumor cell sample C23): 0.0066 nM
EC90 (EGF pathway; NSCLC tumor cell sample C23): 0.194 nM

Substance: HB-EGF
Pathway Sensitivity Status (normal or ultra) (EGF pathway; [2]): Ultra (When the ratio of the EC90 to EC10 is less than 81, the pathway is considered to be ultra-sensitive)
Sensitivity Calculation Result (ratio of the EC90 to EC10 of activating agent) (EGF pathway; [2]): 63.75
Pathway Sensitivity Status (normal or ultra) (EGF pathway; [3]): Ultra (When the ratio of the EC90 to EC10 is less than 81, the pathway is considered to be ultra-sensitive)
Sensitivity Calculation Result (ratio of the EC90 to EC10 of activating agent) (EGF pathway; [3]): 66.67
EC10 Concentration (EGF pathway; NSCLC tumor cell sample C15): 0.0016 nM
EC90 (EGF pathway; NSCLC tumor cell sample C15): 0.102 nM
EC10 Concentration (EGF pathway; NSCLC tumor cell sample C23): 0.003 nM
EC90 (EGF pathway; NSCLC tumor cell sample C23): 0.2 nM
